Laboratory results as given in patent US20130224223A1, “Compositions and Methods for Treating Neurological Disorders” (GEORGIA REGENTS UNIVERSITY, priority 2007, published 2013).

Legend:
[1] = tested on: prefrontal cortical slices; assay: eIPSC recording in prefrontal cortical slices; assay type: cell-based, mice; conditions: for evoked IPSCs (eIPSCs): substance alone, no other exogenous agent, AG1478/AG879 5 mM [sic]
Procedure: Transverse prefrontal cortical slices (0.3 mm) were prepared from P28-P36 mice using a Vibroslice (Leica VT 10005) in the ice-cold solution, which contained 2.5 mM KCl, 1.25 mM NaH2PO4, 10 mM MgSO4, 0.5 mMCaCl2, 26 mM NaHCO3, 10 mM glucose, and 230 mM sucrose. Slices were allowed to recover for at least 2 hr in ACSF (1 hr at 34° C. followed by 1 hr at 22° C.) in a solution containing 126 mM NaCl, 2.5 mM KCl, 1.25 mM NaH2PO4, 2 mM MgSO4, 2 mM CaCl2, 26 mM NaHCO3, and 10 mM glucose. Slices were placed in the recording chamber and superfused (1.5 ml/min) with ACSF at 34° C. All solutions were saturated with 95% O2/5% CO2. Neurons were visualized with an IR-sensitive CCD camera with a 403 water-immersion lens (Zeiss, Axioskop2 Fsplus) and recorded using whole-cell voltage-clamp techniques (MultiClamp 7008 Amplifier, Digidata 1320A analog-to-digital converter) and pClamp 9.2 software (Axon Instruments). Glass pipettes were filled with the solution containing 125 mM Cs-gluconate, 10 mM CsCl, 1 mM MgCl2, 10 mM HEPES, 1 mM EGTA, 0.1 mM CaCl2, 10 mM sodium phosphocreatine, 4 mM Mg-ATP, 0.3 mM GTP, 0.2 mM leupeptin, and 5 mM lidocaine N-ethylchloride (QX314) (pH 7.2, with the osmolarity adjusted to 280 mOsm with sucrose). The resistance of pipettes was 2-3 MΩ For mIPSC recording, QX314 was omitted in the pipette filling solution, whereas […] was included in the superfusing solution. eIPSCs were generated with a two-concentric bipolar stimulating electrode ([…] pole separation; FHC, ME) positioned about […] from the neuron under recording. Single or paired pulses of 0.2 ms were delivered at 0.1 Hz and synchronized using a Mater-8 stimulator (A.M.P.I). The holding potential for both mIPSCs and eIPSCs was −65 mV. All experiments were done at 34° C. in the presence of 6-cyano-7-nitroquinoxaline-2,3-dione (CNQX, […]) and AP-5 ([…]) to block AMPA/NMDA receptors. Data were collected when series resistance fluctuated within 15% of initial values (8-15 MU), they were filtered at 2 kHz, and they were sampled at 10 kHz.

cortical slices = assay: [3H]GABA release from prefrontal cortical slices; assay type: cell-based, mice; conditions: 20 mM KCl; for depolarization-evoked [3H]GABA release: substance alone, no other exogenous agent, AG1478/AG879 5 mM [sic]
Procedure: FIG. 2A is a line graph of [^3H]GABA release fraction/total fraction versus time (mins). Cortical slices were preloaded with [^3H]GABA for 30 min in the presence of b-alanine (1 mM), an inhibitor of [^3H]GABA uptake by glial cells, aminooxyacetic acid (0.1 mM), an inhibitor of GABA degradation, and nipecotic acid (1 mM), an inhibitor of the GABA transporter in neurons. Basal and depolarization (20 mM KCl)-evoked release of [^3H]GABA were monitored sequentially. Controls (open circles) and NRG1 (closed circles). FIG. 2B is a line graph of percent [^3H]GABA release versus NRG1 concentration (nM). Basal (open circles) K+ evoked (closed circles). […] FIG. 2D is a line graph of cumulative counts versus mIPSC amplitude (pA). Controls (open circles) and NRG1 (closed circles). FIG. 2E is a line graph of cumulative counts versus mIPSC interevent interval (ms). Controls (open circles) and NRG1 (closed circles). FIG. 2F is a bar graph of mIPSC (percent) in control and NRG1 treated pyramidal neurons in prefrontal cortical slices (n=12). Amplitude (clear) and Frequencies (hatched). FIG. 2G is a bar graph of percent eIPSC amplitude in prefrontal cortical slices treated with NRG1 versus control or washout. n=12, *p<0.01. Representative eIPSCs of control, NRG1-treated, or NRG1-treated/washed slices are shown on top. FIG. 2H is a line graph of percent eIPSC amplitude versus NRG1 (nM). n=6, *p<0.05, **p<0.01. FIG. 2I is a bar graph of K^+ evoked [^3H]GABA release (percent) (left axis, clear rectangles) and eIPSC amplitude (percent) (right axis, hatched rectangles) in prefrontal cortical slices treated with NRG1, denature NRG1, or BDNF. n=8 for [^3H]GABA release; for eIPSCs, n=6 for control, NRG1, and denatured NRG1, and n=4 for BDNF. *p<0.05, #p<0.05; **p<0.05, ##<0.01.
NRG1 may regulate GABAergic neurotransmission. To test this hypothesis, the effects of NRG1 on GABA release in cortical slices were determined by both biochemical and electrophysiological approaches. Basal [^3H]GABA release was low, at a rate of 3.75±0.35% (n=8) of total radioactivity per 10 min (FIG. 2A). Treatment of slices with 20 mM KCl, a condition known to depolarize neurons, increased [^3H]GABA release by 2.5-3.5 folds within 10 min (FIG. 2A). NRG1 had no effect on basal [^3H]GABA release; by contrast, it increased depolarization-evoked GABA release in a dose-dependent manner (FIG. 2B). […] Furthermore, the NRG regulation remained unchanged in the presence of antagonists of metabotropic glutamate receptors, cholinergic receptors, serotonin receptors, adrenergic receptors and/or dopamine receptors. As a control, BDNF decreased depolarization-evoked GABA release and eIPSCs in cortical slices, in agreement with earlier studies (Canas, et al., Brain Res, 1016:72-78 (2004); Frerking, et al., J Neurophysiol, 80:3383-3386 (1998)).

[2] = tested on: PV-Cre;ErbB4−/− and PV-Cre;ErbB4+/+ mice; assay: pre-pulse inhibition (PPI) test; assay type: in vivo; conditions: 3 mg/kg
Text: FIG. 16A is a bar graph showing the baseline startle response (startle amplitude) for PV-Cre;ErbB4+/+ (white bar, n=7) and PV-Cre;ErbB4−/− (hatched bar, n=6) mice under no stimulus, 70 dB (−) and startle stimulus, 120 dB (+), respectively; P>0.05). FIG. 16B is bar graph showing pre-pulse inhibition (%) for PV-Cre;ErbB4+/+ (white bar, n=7) and PV-Cre;ErbB4−/− (hatched bar, n=6) mice at three different levels of pre-pulse (75 dB, 80 dB, 85 dB), P=0.004. PPI=100−100%×(PPx/P120), in which PPx was the amplitude of the startle response after each pre-pulse and P120 was basal startle amplitude. FIG. 16C is a bar graph showing pre-pulse inhibition (%) for PV-Cre;ErbB4+/+ and PV-Cre;ErbB4−/− mice at three different levels of pre-pulse (75 dB, white bars) (80 dB, hatched bars), (85 dB, stippled bars), treated with vehicle or 3 mg/kg diazepam. Repeated measures, * P<0.05, # P=0.573. For vehicle treatment, n=10 and 12 for PV-Cre;ErbB4−/− mice and PV-Cre;ErbB4+/+ littermates, respectively; for diazepam treatment, n=9 and 11 for PV-Cre; ErbB4−/− and PV-Cre;ErbB4+/+, respectively. […]

Row | Molecule | evoked IPSCs (eIPSCs) [1] | NRG1 potentiation of eIPSCs ([1]; substance given with exogenous NRG1 (5 nM)) | depolarization-evoked [3H]GABA release (cortical slices) | NRG1-enhanced evoked GABA release (cortical slices; substance given with exogenous NRG1) | PPI in PV-Cre;ErbB4−/− mice ([2]; acute administration, mutant mice) | PPI in control mice ([2]; after 30-min treatment, PV-Cre;ErbB4+/+ littermates)
1 | CC(C)(C)c1cc(/C=C(\C#N)C(N)=S)cc(C(C)(C)C)c1O [AG879] | no detectable effect | no detectable effect | no detectable effect | no detectable effect |  | 
2 | CN1C(=O)CN=C(c2ccccc2)c2cc(Cl)ccc21 [diazepam] |  |  |  |  | significantly enhanced | no effect
3 | BDNF: BDNF, a gift from Regeneron; used as a control (protein, UniProt P23560 19-247, looked up) Neurotrophic factor BDNF …: APMKEANIRGQGGLAYPGVRTHGTLESVNGPKAGSRGLTSLADTFEHVIEELLDEDQKVRPNEENNKDADLYTSRVMLSSQVPLEPPLLFLLEEYKNYLDAANMSMRVRRHSDPARRGELSVCDSISEWVTAADKKTAVDMSGGTVTVLEKVPVSKGQLKQYFYETKCNPMGYTKEGCRGIDKRHWNSQCRTTQSYVRALTMDSKKRIGWRFIRIDTSCVCTLTIKRGR | decreased |  | decreased |  |  | 
